29 compounds from PubChem BioAssay AID330 (DTP/NCI, 2004) can be followed below.

This assay concerns P388 leukemia ip, CD2F1 mice, survival T/C. Briefly: NCI In Vivo Anticancer Drug Screen. Data for tumor model P388 Leukemia (intraperitoneal) in CD2F1 (CDF1) mice. The settings on record: endpoint: median survival time, higher = longer survival. In outline: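 Mice carrying the transplanted tumor received test compound or vehicle. Survival was recorded in each group, and the value is the treated-group measurement divided by that of the vehicle-treated control group.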

The mark [1] stands for this setting: dose: 200.0 mg/kg/injection, schedule: Q01DX009 (ip), vehicle: saline with Tween-80.
Where [2] appears, read: dose: 100.0 mg/kg/injection, schedule: Q01DX009 (ip), vehicle: saline with Tween-80.
[3] abbreviates: dose: 50.0 mg/kg/injection, schedule: Q01DX005 (ip), vehicle: saline + Tween-80 + alcohol.
[4] abbreviates: dose: 100.0 mg/kg/injection, schedule: Q01DX005 (ip), vehicle: saline + Tween-80 + alcohol.
[5] abbreviates: dose: 200.0 mg/kg/injection, schedule: Q01DX005 (ip), vehicle: saline + Tween-80 + alcohol.
Where [6] appears, read: dose: 50.0 mg/kg/injection, schedule: Q01DX009 (ip), vehicle: saline.
Where [7] appears, read: dose: 100.0 mg/kg/injection, schedule: Q01DX009 (ip), vehicle: saline.
The mark [8] stands for this setting: dose: 50.0 mg/kg/injection, schedule: Q01DX005 (ip), vehicle: Klucel (hydroxypropylcellulose) (HPC).
[9] abbreviates: dose: 100.0 mg/kg/injection, schedule: Q01DX005 (ip), vehicle: Klucel (hydroxypropylcellulose) (HPC).
The mark [10] stands for this setting: dose: 200.0 mg/kg/injection, schedule: Q01DX005 (ip), vehicle: Klucel (hydroxypropylcellulose) (HPC).
The mark [11] stands for this setting: dose: 100.0 mg/kg/injection, schedule: Q01DX001 (ip), vehicle: saline with Tween-80.
Where [12] appears, read: dose: 200.0 mg/kg/injection, schedule: Q01DX001 (ip), vehicle: saline with Tween-80.
Where [13] appears, read: dose: 60.0 mg/kg/injection, schedule: Q01DX005 (ip), vehicle: Klucel (hydroxypropylcellulose) (HPC).
Where [14] appears, read: dose: 200.0 mg/kg/injection, schedule: Q01DX009 (ip), vehicle: saline.
Setting [15] is: dose: 50.0 mg/kg/injection, schedule: Q01DX009 (ip), vehicle: Klucel (hydroxypropylcellulose) (HPC).
[16] abbreviates: dose: 100.0 mg/kg/injection, schedule: Q01DX009 (ip), vehicle: Klucel (hydroxypropylcellulose) (HPC).
The mark [17] stands for this setting: dose: 200.0 mg/kg/injection, schedule: Q01DX009 (ip), vehicle: Klucel (hydroxypropylcellulose) (HPC).
Where [18] appears, read: dose: 12.5 mg/kg/injection, schedule: Q01DX009 (ip), vehicle: Klucel (hydroxypropylcellulose) (HPC).
[19] abbreviates: dose: 25.0 mg/kg/injection, schedule: Q01DX009 (ip), vehicle: Klucel (hydroxypropylcellulose) (HPC).

Values joined by “and” are separate entries in the source; they are usually repeats but may differ in a detail not shown here. Identical values can stand only once. Inconclusive results and toxic doses are left out.

`COc1ccc(C2C3C(=O)NC(=O)C2C(=O)NC3=O)cc1OC` (stereo not given): the T/C is 101 % of control (dose: 60.0 mg/kg/injection, schedule: Q01DX005 (ip), vehicle: saline); 108 % of control (dose: 120.0 mg/kg/injection, schedule: Q01DX005 (ip), vehicle: saline); 90 % of control (dose: 240.0 mg/kg/injection, schedule: Q01DX005 (ip), vehicle: saline).
Take `C(=NCCN=Cc1ccccc1)c1ccccc1`: the T/C reads like this: under setting [1], 95 % of control; (dose: 400.0 mg/kg/injection, schedule: Q01DX009 (ip), vehicle: saline with Tween-80) 87 % of control.
Take `S=C1Cc2[nH]c(=S)sc(=S)c2C(=S)N1`: the T/C under setting [2] was 87 % of control.
Turning to `CC(=O)SCCCn1c(=O)n(CCCSC(C)=O)c(=O)n(CCCSC(C)=O)c1=O`, the T/C was 114 % of control under setting [3], 110 % of control under setting [4] and 116 % of control under setting [5].
For the compound `N#C/C(=C\c1ccc([N+](=O)[O-])o1)[N+](=O)[O-]`, the T/C by setting is: under setting [6], 103 % of control; under setting [7], 93 % of control.
`NC1=NC2(CS1)CSC(N)=N2`: the T/C (dose: 50.0 mg/kg/injection, schedule: Q01DX009 (ip), vehicle: saline with Tween-80) is 94 % of control; the T/C under setting [2] is 113 % of control; the T/C under setting [1] is 90 % of control.
As for `CC1(C)OC2COC3(C(=O)O)OC(C)(C)OC3C2O1` (stereo not given), the T/C runs as follows: under setting [8], 100 % of control; under setting [9], 100 % of control; under setting [10], 98 % of control.
On to `C[Si](CCCNCCN)(O[Si](C)(CCCNCCN)c1ccccc1)c1ccccc1` (stereo not given), for which the T/C by setting is: (dose: 15.0 mg/kg/injection, schedule: Q01DX005 (ip), vehicle: saline with Tween-80) 109 % of control; (dose: 30.0 mg/kg/injection, schedule: Q01DX005 (ip), vehicle: saline with Tween-80) 105 % of control; (dose: 60.0 mg/kg/injection, schedule: Q01DX005 (ip), vehicle: saline with Tween-80) 100 % of control.
As for `CCOC(=O)c1ccnc2ccc3ccccc3c12`, the T/C runs as follows: under setting [8], 105 % of control; under setting [9], 102 % of control; under setting [10], 96 % of control.
With `CSc1nnc2nc[nH]n12`, the T/C is 102 % of control under setting [11] and 98 % of control under setting [12].
For `Cc1ccc(S(=O)(=O)Nc2nnc(NS(=O)(=O)c3ccc(C)cc3)nn2)cc1`, the T/C (dose: 12.5 mg/kg/injection, schedule: Q01DX009 (ip), vehicle: other) is 96 % of control; the T/C (dose: 25.0 mg/kg/injection, schedule: Q01DX009 (ip), vehicle: other) was 96 % of control; the T/C (dose: 50.0 mg/kg/injection, schedule: Q01DX009 (ip), vehicle: other) is 96 % of control; the T/C (dose: 100.0 mg/kg/injection, schedule: Q01DX009 (ip), vehicle: other) was 91 % of control; the T/C (dose: 200.0 mg/kg/injection, schedule: Q01DX009 (ip), vehicle: other) was 94 % of control.
On to `NC(=S)C(Cl)(Cl)Cl`, for which the T/C is 116 % of control under setting [3], 119 % of control under setting [4] and 113 % of control under setting [5].
Turning to `CN(C)C(=O)n1cc(Cl)c(=O)c2c3ncn(C)c3ccc21`, the T/C under setting [13] is 108 % of control, the T/C under setting [9] is 101 % of control and the T/C under setting [10] is 100 % of control.
Turning to `Cn1c(=O)c2nc(-c3ccc(Cl)cc3)oc2n(C)c1=O`, the T/C is 104 % of control under setting [6], 100 % of control under setting [7] and 102 % of control under setting [14].
`O=C1NC(c2ccccc2)(c2ccccc2)C(=O)N1CN1CC=CCC1`: the T/C runs as follows: under setting [13], 103 % of control; (dose: 120.0 mg/kg/injection, schedule: Q01DX005 (ip), vehicle: Klucel (hydroxypropylcellulose) (HPC)) 108 % of control; (dose: 240.0 mg/kg/injection, schedule: Q01DX005 (ip), vehicle: Klucel (hydroxypropylcellulose) (HPC)) 97 % of control.
As to `CCC[CH2][Ge](=[O])[CH2]CCC`, the T/C was 103 % of control under setting [6], 102 % of control under setting [7] and 88 % of control under setting [14].
As to `O=C(O)Cc1cn2cc(Br)ccc2n1`, the T/C under setting [11] is 105 % of control; the T/C under setting [12] is 109 % of control; the T/C (dose: 400.0 mg/kg/injection, schedule: Q01DX001 (ip), vehicle: saline with Tween-80) is 104 % of control.
Turning to `COc1cc(/C=N/n2cnnc2)cc(OC)c1OC`, the T/C under setting [7] is 100 % of control; the T/C under setting [14] is 108 % of control; the T/C (dose: 400.0 mg/kg/injection, schedule: Q01DX009 (ip), vehicle: saline) was 100 % of control.
With `CCOC(=O)N1C=C(C(=O)OC)C(c2ccccc2)C(C(=O)OC)=C1`, the T/C (dose: 50.0 mg/kg/injection, schedule: Q01DX005 (ip), vehicle: saline with Tween-80) was 95 % of control; the T/C (dose: 100.0 mg/kg/injection, schedule: Q01DX005 (ip), vehicle: saline with Tween-80) was 106 % of control; the T/C (dose: 200.0 mg/kg/injection, schedule: Q01DX005 (ip), vehicle: saline with Tween-80) is 97 % of control.
For `COc1cccc(C2C(C#N)C(=O)NC(=O)C2C#N)c1` (stereo not given), the T/C by setting is: under setting [15], 102 % of control; under setting [16], 100 % of control; under setting [17], 99 % of control.
With `c1cnc2nsnc2c1`, the T/C is, setting by setting: under setting [18], 100 % of control; under setting [19], 97 % of control; under setting [15], 100 % of control and 106 % of control.
For the compound `O=[C-]C(F)(F)F.[C-]#[O+].[C-]#[O+].[C-]#[O+].[C-]#[O+].[C-]#[O+].[Mn]`, the T/C reads like this: (dose: 50.0 mg/kg/injection, schedule: Q01DX001 (ip), vehicle: other) 100 % of control; (dose: 100.0 mg/kg/injection, schedule: Q01DX001 (ip), vehicle: other) 100 % of control.
As to `CCN(CC)CCCC(CCl)Nc1ccnc2cc(Cl)ccc12` (stereo not given), the T/C reads like this: under setting [15], 113 % of control; under setting [6], 97 % of control; under setting [16], 100 % of control; under setting [7], 100 % of control; under setting [17], 98 % of control.
As to `S=C(Nc1nccs1)Nc1nccs1`, the T/C runs as follows: (dose: 3.13 mg/kg/injection, schedule: Q01DX009 (ip), vehicle: Klucel (hydroxypropylcellulose) (HPC)) 98 % of control; (dose: 6.25 mg/kg/injection, schedule: Q01DX009 (ip), vehicle: Klucel (hydroxypropylcellulose) (HPC)) 98 % of control; under setting [18], 95 % of control; under setting [19], 92 % of control.
Turning to `Cc1cc(NCCN(C(C)C)C(C)C)nc(Nc2nc3cc(Cl)c(Cl)cc3[nH]2)n1`, the T/C is 100 % of control (dose: 6.25 mg/kg/injection, schedule: Q01DX009 (ip), vehicle: saline sonified) and 100 % of control (dose: 12.5 mg/kg/injection, schedule: Q01DX009 (ip), vehicle: saline sonified).
With `O=C1C(Cl)=C(NCCCN(CCO)CCO)C(=O)c2ccccc21`, the T/C runs as follows: (dose: 12.5 mg/kg/injection, schedule: Q01DX009 (ip), vehicle: saline) 100 % of control; (dose: 25.0 mg/kg/injection, schedule: Q01DX009 (ip), vehicle: saline) 107 % of control and 88 % of control; under setting [6], 107 % of control and 108 % of control.
Regarding `O=[N+]([O-])c1cc2[nH]cnc2c([N+](=O)[O-])c1N1CCCCC1`, the T/C is, setting by setting: (dose: 25.0 mg/kg/injection, schedule: Q04DX003 (ip), vehicle: saline with Tween-80) 92 % of control; (dose: 50.0 mg/kg/injection, schedule: Q04DX003 (ip), vehicle: saline with Tween-80) 92 % of control; (dose: 100.0 mg/kg/injection, schedule: Q04DX003 (ip), vehicle: saline with Tween-80) 100 % of control.
For the compound `CCCCNC(=O)SCCC(=O)OC`, the T/C by setting is: under setting [8], 100 % of control; under setting [9], 99 % of control; under setting [10], 105 % of control.
Taken in the same sequence, the figures for `CC(NC(=O)OCc1ccccc1)C(=O)NCC(=O)OCc1ccccc1` (stereo not given) were 100 % of control, 98 % of control and 104 % of control.
